According to ChEMBL document CHEMBL5120927, “LEGO-Lipophosphonoxins: A Novel Approach in Designing Membrane Targeting Antimicrobials” (J Med Chem, 2022):

Columns and labels:
[1] = system: Staphylococcus aureus; test: Antibacterial activity against Staphylococcus aureus ATCC 29213 = CCM 4223 assessed as inhibition of bacterial growth incubated for 24 hrs in presence of BSA by microdilution assay; format: functional
[2] = system: Staphylococcus epidermidis; test: Antibacterial activity against Staphylococcus epidermidis CCM 7221 assessed as inhibition of bacterial growth incubated for 24 hrs by microdilution assay; format: functional
[3] = system: Enterococcus faecalis; test: Antibacterial activity against Enterococcus faecalis ATCC 29212 = CCM 4224 assessed as inhibition of bacterial growth incubated for 24 hrs by microdilution assay; format: functional
[4] = system: Escherichia coli; test: Antibacterial activity against multidrug-resistant Escherichia coli CE5556 expressing CTX-M-15 assessed as reduction in microbial growth incubated for 24 hrs by microdilution assay; format: functional
[5] = system: Pseudomonas aeruginosa; test: Antibacterial activity against Pseudomonas aeruginosa ATCC 27853 = CCM 3955 assessed as inhibition of bacterial growth incubated for 24 hrs by microdilution assay; format: functional
[6] = system: Pseudomonas aeruginosa; test: Antibacterial activity against multidrug-resistant Pseudomonas aeruginosa assessed as reduction in microbial growth incubated for 24 hrs by microdilution assay; format: functional
[7] = system: Enterococcus faecium; test: Antibacterial activity against vancomycin resistant Enterococcus faecium 419/ANA assessed as reduction in microbial growth incubated for 24 hrs by microdilution assay; format: functional
[8] = system: Staphylococcus aureus; test: Antibacterial activity against Staphylococcus aureus ATCC 29213 = CCM 4223 assessed as inhibition of bacterial growth incubated for 24 hrs by microdilution assay; format: functional
[9] = system: Staphylococcus aureus; test: Antibacterial activity against methicillin resistant Staphylococcus aureus 4591/A assessed as reduction in microbial growth incubated for 24 hrs by microdilution assay; format: functional
[10] = Hemolytic activity in human RBC assessed as haemoglobin release measured after 3 hr; format: toxicity, cell-based, Erythrocyte; conditions: red blood cells (erythrocytes)
[11] = system: Escherichia coli; test: Antibacterial activity against Escherichia coli ATCC 25922 = CCM 3954 assessed as inhibition of bacterial growth incubated for 24 hrs in presence of BSA by microdilution assay; format: functional
[12] = Cytotoxicity against human HepG2 cells assessed as reduction in cell viability; format: toxicity, cell-based
[13] = system: Escherichia coli; test: Antibacterial activity against Escherichia coli ATCC 25922 = CCM 3954 assessed as inhibition of bacterial growth incubated for 24 hrs by microdilution assay; format: functional
[14] = Gradient chromatographic hydrophobicity index of the compound at pH 3.7 by HPLC analysis; format: ADME

Row | SMILES | MIC [1] [µg/mL] | MIC [2] [µg/mL] | MIC [3] [µg/mL] | MIC [4] [µg/mL] | MIC [5] [µg/mL] | MIC [6] [µg/mL] | MIC [7] [µg/mL] | MIC [8] [µg/mL] | MIC [9] [µg/mL] | HC50 at 3 h [10] [µg/mL] | MIC [11] [µg/mL] | CC50 [12] [µM] | MIC [13] [µg/mL] | CHI [14]
1 | Cl.Cl.Cl.Cl.Cl.Cl.NCCCN(CCCN)CCP(=O)(OCCCCCOP(=O)(CCN(CCCN)CCCN)OCC12CC3CC(CC(C3)C1)C2)OCC12CC3CC(CC(C3)C1)C2 (stereo not drawn) | 2 | 2 | 4 | 4 | 32 | 8 | 64 | 2 | 2 | 415 | 2 | > 99 | 2 | 34.1
2 | CCCCC/C=C\CCOP(=O)(CCN(CCCN)CCCN)OCCCCCCOP(=O)(CCN(CCCN)CCCN)OCC/C=C\CCCCC.Cl.Cl.Cl.Cl.Cl.Cl (stereo not drawn) | 2 | 0.5 | 2 | 1 | 2 | 2 | 8 | 0.5 | 1 | 262 | 0.5 | 30.8 | 1 | 37.5
3 | CCCCCCCCOP(=O)(CCN(CCN)CCN)OCCCCCCOP(=O)(CCN(CCN)CCN)OCCCCCCCC.Cl.Cl.Cl.Cl.Cl.Cl (stereo not drawn) | 5 | 0.5 | 1 | 1 | 2 | 2 | 4 | 0.5 | 0.5 | 79 | 1 | 80.6 | 1 | 43.2
4 | CCCCC/C=C\CCOP(=O)(CCN(CCCN)CCCN)OCCCCCOP(=O)(CCN(CCCN)CCCN)OCC/C=C\CCCCC.Cl.Cl.Cl.Cl.Cl.Cl (stereo not drawn) | 2 | 1 | 4 | 1 | 4 | 4 | 32 | 1 | 1 | > 500 | 1 | 97.8 | 2 | 37.2
5 | Cl.Cl.Cl.Cl.Cl.Cl.NCCCN(CCCN)CCP(=O)(OCCCOP(=O)(CCN(CCCN)CCCN)OCCC12CC3CC(CC(C3)C1)C2)OCCC12CC3CC(CC(C3)C1)C2 (stereo not drawn) | 2 | 2 | 2 | 2 | 16 | 4 | 32 | 1 | 1 | 196 | 1 | 93.6 | 2 | 36.9
6 | CC(C)COP(=O)(CCN(CCCN)CCCN)OCCCCCCCCCCCCOP(=O)(CCN(CCCN)CCCN)OCC(C)C.Cl.Cl.Cl.Cl.Cl.Cl (stereo not drawn) | 16 | 1 | 32 | > 128 | 32 | 16 | 128 | 4 | 4 | 170 | > 128 | 56.2 | 128 | 31.4
7 | CCCCOP(=O)(CCN(CCN)CCN)OCCCCCCCCCCOP(=O)(CCN(CCN)CCN)OCCCC.Cl.Cl.Cl.Cl.Cl.Cl (stereo not drawn) | > 128 | 64 | 64 | > 128 | 64 | 128 | 128 | 64 | 128 | 55 | > 128 | > 99 | 64 | 34.2
8 | CCCCCCOP(=O)(CCN(CCCN)CCCN)OCCCCCCCCOP(=O)(CCN(CCCN)CCCN)OCCCCCC.Cl.Cl.Cl.Cl.Cl.Cl (stereo not drawn) | 2 | 0.5 | 16 | 8 | 16 | 64 | > 128 | 1 | 2 | > 500 | 8 | > 99 | 1 | 31.4
9 | CCC/C=C\CCOP(=O)(CCN(CCCN)CCCN)OCCCCCCOP(=O)(CCN(CCCN)CCCN)OCC/C=C\CCC.Cl.Cl.Cl.Cl.Cl.Cl (stereo not drawn) | 16 | 1 | > 128 | 32 | 128 | 128 | > 128 | 4 | 4 | > 200 | 32 | > 99 | 16 | 29.6
10 | CCCCCOP(=O)(CCN(CCN)CCN)OCCCCCCCCOP(=O)(CCN(CCN)CCN)OCCCCC.Cl.Cl.Cl.Cl.Cl.Cl (stereo not drawn) | 8 | 2 | > 128 | > 128 | > 128 | > 128 | > 128 | 8 | 8 | > 200 | > 128 | – | 2 | 34.7
11 | Cl.Cl.Cl.Cl.Cl.Cl.N=C(N)NCCCN(CCCNC(=N)N)CCP(=O)(OCCCCCOP(=O)(CCN(CCCNC(=N)N)CCCNC(=N)N)OCC12CC3CC(CC(C3)C1)C2)OCC12CC3CC(CC(C3)C1)C2 (stereo not drawn) | 0.5 | 0.5 | 4 | 1 | 8 | 8 | 8 | 1 | 1 | 259 | 2 | – | 1 | 333
12 | CCCCCCCCOP(=O)(CCN(CCCN)CCCN)OCCCCCCCCOP(=O)(CCN(CCCN)CCCN)OCCCCCCCC.Cl.Cl.Cl.Cl.Cl.Cl (stereo not drawn) | 0.25 | 3 | 1 | 1 | 2 | 2 | 4 | 0.5 | 5 | 683 | 0.5 | – | 1 | 38.7
13 | Cl.Cl.Cl.Cl.Cl.Cl.N=C(N)NCCCN(CCCNC(=N)N)CCP(=O)(OCCCCCCCOP(=O)(CCN(CCCNC(=N)N)CCCNC(=N)N)OCCCC(F)(F)F)OCCCC(F)(F)F (stereo not drawn) | 16 | 8 | > 128 | 128 | > 128 | > 128 | > 128 | 8 | 8 | > 200 | 128 | – | 1 | 25.2
